Data on three molecules can be found in ChEMBL document CHEMBL1153238, “Spirodiketopiperazine-based CCR5 antagonists: Improvement of their pharmacokinetic profiles” (Bioorg Med Chem Lett, 2010).

Structures are written as SMILES.

Data set [1] has as its system Human immunodeficiency virus 1. The data set can be described thus: Antiviral activity against HIV1 Ba-L(R5) infected in human PBMC by p24 antigen capture assay. As to conditions: Human immunodeficiency virus 1, Ba-L(R5).
Data set [2] concerns Rattus norvegicus. Put plainly: Half life in rat at 30 mg/kg, iv. As to conditions: in vivo. Set-up: dose 30 mg/kg, route intravenous. Format: ADME, organism-based.
In data set [3] the test system is Rattus norvegicus. Put plainly: AUC (0 to infinity) in rat at 30 mg/kg, po administered as single dose. Conditions: in vivo. Format: ADME, organism-based, Plasma. Also on record: time infinity, dose 30 mg/kg, route oral.
Data set [4] is described as follows: Cmax in rat at 30 mg/kg, po administered as single dose. As to conditions: in vivo. Format: ADME, organism-based. Set-up: dose 30 mg/kg, route oral.
In data set [5] the test system is Rattus norvegicus. The data set can be described thus: Bioavailability in rat at 30 mg/kg, po administered as single dose. Conditions: in vivo. The data set is classed as ADME, organism-based.
The subject of data set [6] is Rattus norvegicus. Put plainly: Half life in rat at 30 mg/kg, po administered as single dose. Format: ADME, organism-based. Set-up: dose 30 mg/kg, route oral. Conditions: in vivo.
Data set [7] concerns Rattus norvegicus. The data set can be described thus: AUC (0 to infinity) in rat at 30 mg/kg, iv. The data set is classed as ADME, organism-based, Plasma. Set-up: time infinity, dose 30 mg/kg, route intravenous. As to conditions: in vivo.
Data set [8] can be described thus: Solubility of the compound. The data set is classed as physicochemical.
For another data set, the system named is Liver microsomes. The data set can be described thus: Metabolic stability in rat liver microsomes assessed as compound remaining after 15 mins. The data set is classed as ADME, Microsome. As to conditions: 0.25 h.
Data set [9] concerns the target C-C chemokine receptor type 5 (Homo sapiens, UniProt P51681). Put plainly: Antagonist activity at human CCR5 receptor overexpressed in CHO cells assessed as inhibition of MIP-1-alpha-induced calcium mobilization. Format: functional, cell-based. (Calcium flux is commonly read through the fluorescence of an indicator in the cells.)

C-C chemokine receptor type 5, sequence (P51681 whole entry): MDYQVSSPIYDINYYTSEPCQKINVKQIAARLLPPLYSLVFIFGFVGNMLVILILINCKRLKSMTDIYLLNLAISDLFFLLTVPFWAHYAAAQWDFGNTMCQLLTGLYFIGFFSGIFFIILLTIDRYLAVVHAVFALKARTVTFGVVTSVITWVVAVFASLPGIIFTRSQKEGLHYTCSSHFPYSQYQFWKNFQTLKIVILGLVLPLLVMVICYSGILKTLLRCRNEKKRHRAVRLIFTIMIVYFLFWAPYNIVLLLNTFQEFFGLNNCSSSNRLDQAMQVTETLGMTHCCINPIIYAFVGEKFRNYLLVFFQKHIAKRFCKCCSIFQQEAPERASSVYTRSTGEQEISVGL

For orientation: IC50 means the point on the concentration scale where inhibition reaches its midpoint. Take `Cc1c(O)cccc1C(=O)N[C@@H](CSc1ccccc1)[C@H](O)CN1C[C@H]2CCCC[C@H]2C[C@H]1C(=O)NC(C)(C)C`: the IC50 in data set [1] is 12 nM.

In general, AUC refers to the area under the concentration-time curve, a measure of exposure. High values mean more exposure, low ones less exposure. The Cmax is the highest concentration seen after dosing. What is called solubility is the dissolved amount per volume that the medium holds. Lower therefore signals a poorly soluble substance. As to `CCCCN1C(=O)C(CC2CCCCC2)NC(=O)C12CCN(Cc1ccc(Oc3ccccc3)cc1)CC2.Cl` (racemic), the t1/2 with Rattus norvegicus [2] was 0.332 h; in the data set on Rattus norvegicus [6], 1.72 h. Moreover, the figures for the AUC in the data set with Rattus norvegicus [3] and in the data set with Rattus norvegicus [7] were 74.4 ng·h/mL and 400 ng·h/mL, respectively. Also, in [4], the concentration peaked (Cmax) at 16.7 ng/mL. The same molecule gave a F in the data set with Rattus norvegicus [5] of 1.9%. For the same molecule, the solubility in [8] was under 5 µM. In addition, the Stability in the data set with Liver microsomes was determined as 33%.

As to `CCCCN1C(=O)C(CC(C)C)NC(=O)C12CCN(Cc1ccc3c(c1)OCCO3)CC2` (racemic), the IC50 in data set [9] stood at 180 nM.
